Results as given in patent US20080167272A1, “Thalidomide metabolites and methods of use” (Auckland Uniservices Limited, priority 2005, published 2008).

Experiments:
[1] = Stability of CG in PBS at different pH (HPLC); format: physicochemical
Description: CG (50 μM) with 60 μM of phenacetin (as an internal standard) at pH 3.5, 6.8, 7.1, 7.4, 7.7 and 8 in 8 mm clear polyethylene starburst conical snap vials (Alltech, Deerfield, Ill., USA), was incubated in the autosampler (Waters Associates, Milford, Mass., USA) at 37° C. Aliquots (50 μl) of the solutions were then automatically loaded at 0, 6, 12, 18 and 24 hours after incubation onto a Waters Breeze chromatograph (Waters Associates, Milford, Mass., USA) which consisted of a Model 717plus autosampler, Model 1525 binary pump and Model 2487 dual wavelength absorbance detector.
Compounds were separated using a previously described (Chung et al, 2004) HPLC assay for thalidomide using a 100×4.6 mm stainless steel Luna 5 μm Phenylhexyl column (Phenomenex, Torrance, Calif., USA) and a mobile phase (Milli Q water:acetonitrile 10:1.3 v/v) that was pumped at a flow rate of 2 ml/min. Thalidomide and phenacetin were detected at ultraviolet wavelengths of 220 and 248 nm, respectively. The retention times of phenacetin and thalidomide and were 13 and 11 min, respectively. Data acquisition and integration was achieved using Breeze™ Software, Milford, Calif., USA. Each HPLC run included standard curves of thalidomide (0.6-100 μM) or CG (0.2-50 μM) with phenacetin (60 μM) as the internal standard in PBS. […] The r^2 of calibration curves of thalidomide was 0.9995, and for CG calibration curves was 0.9999. The intra-assay recovery was 90-110% (n=8) and the CV was 5-9% (n=4), while the inter-assay recovery was 96-104% (n=15) and the CV was 2-4% (n=6).
To construct the calibration curve, the peak-area ratios to the internal standard were plotted against thalidomide concentration and the best-fit straight line was obtained by linear regression analysis. The correlation coefficient of the calibration curves had r^2 values of greater than 0.9995. The thalidomide/phenacetin peak ratio was determined for all samples and the concentration of thalidomide in each sample was determined from the calibration curve.
The ratio of the area of the thalidomide peak or the CG peak to that of the phenacetin peak in the HPLC chromatographs then calculated and the concentration of thalidomide and CG was determined using the calibration curve. The percentage degradation of CG was calculated as: [1-(CG concentration after incubation/starting concentration)]×100.

[2] = test system: ECV304 cells; experiment: Inhibition of tube formation of ECV304 cells in Matrigel; format: cell-based, human
Description: Each well in a 24-well plate was coated with 300 μl of Matrigel (Becton Dickinson, San Jose, Calif., USA) which was allowed to solidified at 37° C. for 1 h. […] After 15-18 h of incubation at 37° C. at 5% CO2, the culture supernatant was aspirated. The cells were fixed and stained using Diff-Quick staining kit (Dade AG, Dudingen, Switzerland) according to the manufacturer's instructions. After removal of the staining solution the stained cells in each well were photographed along with a measuring ruler placed at the bottom edge of the photographing field (Olympus Camedia C-5050 professional digital camera, Olympus Optical, Tokyo, Japan). The total length of the tubes formed in the photographs was measured and divided by the area of the field (mm/mm^2).

[3] = test system: Colon 38 tumours; experiment: Colon 38 tumour growth in mice, combination with cyclophosphamide; format: in vivo; conditions: CG 100 mg/kg plus cyclophosphamide 220 mg/kg; FIG. 9
Description: Mice (C57B1/6 bred at the Animal Resources Unit, University of Auckland, New Zealand) were implanted with Colon 38 tumours, obtained originally from the Mason Research Institute (Auckland, New Zewaland) by transferring 1 mm^3 pieces of the tumour into a subcutaneous opening in the left flank of anaesthetized mice. The mice with tumours were used for growth delay experiments when tumours had reached approximately 3-5 mm in diameter. […] Tumours were measured 2-3 times weekly after treatment and tumour volumes were calculated as 0.52×a^2×b, where a and b are the minor and major axes of the tumour. The arithmetic means and standard errors were calculated for each point, counting cured animals as having zero tumour volume, and expressed as fractions of the pre-treatment volume. Growth delay was determined as the difference in the number of days required for the tumour to reach four times the pre-treatment volume. […]

Structure (SMILES): O=C1CCC(NC(=O)c2ccccc2C(=O)O)C(=O)N1 (stereo not shown) [CG, 2-{[(2,6-Dioxo-3-piperidinyl)amino]carbonyl}benzoic acid]
- stability in solution ([1]; low pH): unstable
- CG remaining in the solution after 24 h ([1]; pH 3.5, 37° C.): 21.5%
- CG transformed into thalidomide ([1]; pH 3.5, 24 h incubation): 42%
- thalidomide in CG solutions after incubation ([1]; pH 6.8, 7.1, 7.4, 7.7 or 8): not detected
- CG remaining in solution after 24 h ([1]; pH 6.8, 37° C.): 81.75%
- CG remaining in solution after 24 h ([1]; pH 7.1, 37° C.): 50.1%
- CG remaining in solution after 24 h ([1]; pH 7.4, 37° C.): 46.6%
- CG remaining in the solution after 24 h ([1]; pH 7.7, 37° C.): 8.6%
- CG remaining in the solution after 24 h ([1]; pH 8, 37° C.): 0%
- stability in solution ([1]; pHs between 6.8-7.4): stable
- stability compared with thalidomide ([1]; physiological conditions): more stable than thalidomide
- CG degraded ([1]; physiological conditions, after 6 h): 1.3-20%
- inhibition of tube formation ([2]; 250 μg/ml, FIGS. 6 & 7): Near complete inhibition
- inhibition at 2 µg/mL ([2]; Homo sapiens, ECV-304, lowest concentration tested, 2 μg/ml, FIG. 7): 38 to 41%
- angiogenesis inhibition in vitro compared with thalidomide ([2]; human cell system, FIGS. 6 & 7): as active as thalidomide
- tumour size at day 15 after treatment, combination vs monotherapies [3]: significantly smaller than those treated with each of the monotherapies
